Source: US5198457A, “Treatment of hyperthyroidism with 1,3-dihydro-1[2-(2-thienyl)alkyl]-2H-imidazole-2-thiones” (Merrell Dow Pharmaceuticals Inc., priority 1992, dated 1993)

Assays:
[1] = tested on: dopamine beta-hydroxylase; details: relative to methimazole analogs with larger 1-alkyl substituents; Fuller et al. 1977; cited from earlier work
thyroid [2] = details: Fuller et al. 1977; cited from earlier work
[3] = tested on: thyroid follicular epithelium; assay: Two week rat study, oral gavage: thyroid findings; assay type: in vivo, Sprague-Dawley rats
Description: The activity of the compounds of Formula I is illustrated through their effects on thyroid function in the rat.
(§1) Sprague-Dawley rats were divided into groups of five males and five females and administered daily by gavage 0, 50, 100, 200, 300, 500, 700 and 1,000 mg/kg/day for two weeks under both fed and fasted conditions. Behavior of the rats was monitored daily while body weight, food consumption and clinical signs were measured weekly. At the termination of the study, rats were bled for clinical chemistry and hematology determinations. After bleeding, rats were sacrificed and necropsied in order that organs could be examined grossly, and tissue specimens were collected for subsequent microscopic examination.

[4] = Three month rat study, gavage: serum cholesterol; assay type: in vivo, Sprague-Dawley rats
Description: (§2) Collectively, these findings are consistent with drug-induced inhibition of thyroid function and resulting morphological alterations due to compensatory stimulation of increased TSH due to decreased secretion of thyroid hormones.
(§3) For this study Sprague-Dawley rats were divided into groups of 33 males and 33 females and administered by gavage 0, 50 and 200 mg/kg/day of 1,3-dihydro-1-[2-(2-thienyl)ethyl]-2H-imidazole-2-thione in 0.5% aqueous methylcellulose for up to three months. Additional pharmacokinetic study of drug levels was performed by bleeding 3 males and 3 females from each group either 2 or 24 hours posdosing on treatment days 1, 45 and 87. Study parameters included daily observation of behavior; weekly observations of physical condition, food consumption and body weight; and terminal ophthalmoscopic evaluation, serum clinical chemistry, hematology, organ weights, and gross and microscopic tissue examinations.

[5] = Two week rat study: clinical chemistry (cholesterol); assay type: in vivo, Sprague-Dawley rats
Description: as §1

thyroid [6] = assay: Three month rat study, gavage: thyroid histology and thyroid weight; assay type: in vivo, Sprague-Dawley rats; details: for Thyroid follicular cell hyperplasia (incidence), treatment: up to three months, gavage; for Thyroid weight, treatment / Thyroid weight, recovery: mean ± standard deviation; for Thyroid weight, recovery: one month recovery
Description: as §2, §3

[7] = 200 mg/kg/day, female, P < 0.01 compared to controls

Sc1nccn1C1CCCCC1 [1-cyclohexyl-2-mercaptoimidazole (CHMI), 1-cyclohexyl-2-mercaptoimidazole]
DBH-inhibiting activity [1]: greatest DBH inhibition | Antithyroid activity (thyroid [2]): only slight antithyroid activity

S=c1[nH]ccn1CCc1cccs1 [1,3-Dihydro-1-[2-(2-thienyl)ethyl]-2H-imidazole-2-thione]
Thyroid follicular epithelium findings, lower doses ([3]; 100-300 mg/kg/day males, 50-300 mg/kg/day females, two weeks): mainly hypertrophic with minimal colloid involution | Thyroid follicular cell findings, high doses ([3]; >500 mg/kg/day, two weeks): diffuse hyperplasia, hypertrophy, increased mitotic FIGURES, and involution or total absence of luminal colloid | Onset of effect on thyroid follicular epithelium ([3]; oral, 50 to 700 mg/kg/day): three to four | Effect on thyroid follicular epithelium ([3]; oral, 50 to 700 mg/kg/day, two weeks): striking effects on the thyroid follicular epithelium | Effect on thyroid gland at high doses ([3]; rat, high doses): lesions in the thyroid gland and associated clinicopathological findings that indicate thyroid hormone synthesis is reduced or inhibited | Serum cholesterol, treatment ([4]; 50 mg/kg/day, female (control 71)): 88 mg/dL | Serum cholesterol, recovery ([4]; 50 mg/kg/day, female, one month recovery (control 66)): 86 mg/dL | Serum cholesterol, treatment ([4]; 50 mg/kg/day, male (control 63)): 81 mg/dL | Serum cholesterol, recovery ([4]; 50 mg/kg/day, male, one month recovery (control 75)): 74 mg/dL | Serum cholesterol, treatment ([4]; 200 mg/kg/day, female (control 71)): 105 mg/dL | Serum cholesterol, recovery ([4]; 200 mg/kg/day, female, one month recovery (control 66)): 76 mg/dL | Serum cholesterol, treatment ([4]; 200 mg/kg/day, male (control 63)): 97 mg/dL | Serum cholesterol, recovery ([4]; 200 mg/kg/day, male, one month recovery (control 75)): 76 mg/dL | Cholesterol level, % of pretest values ([5]; females, doses >200 mg/kg/day): approximately 135% | Cholesterol level, % of pretest values ([5]; males, doses >500 mg/kg/day): approximately 135% | Thyroid follicular cell hyperplasia (incidence), treatment (thyroid [6]; 50 mg/kg/day, female): 7/10 | Thyroid weight, treatment (thyroid [6]; 50 mg/kg/day, female, P < 0.01 compared to controls): .03 ± .01 gm | Thyroid follicular cell hyperplasia (incidence), recovery (thyroid [6]; 50 mg/kg/day, female, one month recovery from dosing): 0/5 | Thyroid weight, recovery (thyroid [6]; 50 mg/kg/day, female): .02 ± .00 gm | Thyroid follicular cell hyperplasia (incidence), treatment (thyroid [6]; 50 mg/kg/day, male): 10/10 | Thyroid weight, treatment (thyroid [6]; 50 mg/kg/day, male, P < 0.01 compared to controls): .04 ± .01 gm | Thyroid follicular cell hyperplasia (incidence), recovery (thyroid [6]; 50 mg/kg/day, male, one month recovery from dosing): 0/5 | Thyroid weight, recovery (thyroid [6]; 50 mg/kg/day, male): .03 ± .01 gm | Thyroid follicular cell hyperplasia (incidence), treatment (thyroid [6]; 200 mg/kg/day, female): 10/10 | Thyroid weight, treatment (thyroid [6]; [7]): .06 ± .03 gm | Thyroid follicular cell hyperplasia (incidence), recovery (thyroid [6]; 200 mg/kg/day, female, one month recovery from dosing): 8/10 | Thyroid weight, recovery (thyroid [6]; [7]): .03 ± .01 gm | Thyroid follicular cell hyperplasia (incidence), treatment (thyroid [6]; 200 mg/kg/day, male): 10/10 | Thyroid weight, treatment (thyroid [6]; 200 mg/kg/day, male, P < 0.01 compared to controls): .14 ± .08 gm | Thyroid follicular cell hyperplasia (incidence), recovery (thyroid [6]; 200 mg/kg/day, male, one month recovery from dosing): 0/5 | Thyroid weight, recovery (thyroid [6]; 200 mg/kg/day, male, P < 0.05 compared to controls): .05 ± .01 gm | Reversibility of thyroid findings (thyroid [6]; one month recovery from dosing): nearly completely reversible | Thyroid effects, three month study (thyroid [6]; single daily doses of 50 and 200 mg/kg/day): profound thyroid effects characterized by thyroid follicular cell hyperplasia, increased thyroid weights and hypercholesteremia

Cn1ccnc1S [methimazole, 1-methyl-2-mercaptoimidazole]
DBH-inhibiting activity [1]: less pronounced than that of methimazole analogs bearing larger 1-alkyl substituents
